Source: patent US20030064954A1, “Cationic amphiphilic 1,4-dihydropyridine derivatives useful for delivery of nucleotide containing compounds” (priority 2000, published 2003)

Legend:
CVI-P cells = test: Cytotoxicity of amphiphile/DNA complexes, percentage of survived cells
D 407 cells = test: as above; type: cell-based, human; design: concentration or dose not given beside the values
[1] = test system: D407 (human retinal pigment epithelial) cells; test: In vitro transfection of plasmid DNA, β-galactosidase activity per well; type: cell-based; conditions: D 407
[2] = test system: CV-1P (African monkey green kidney fibroblasts cells); test: as above; type: cell-based; conditions: CVI-P; for transfection, result in words: entry spans the charge ratios 8-0.5
Outline: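 CV-1P cells (20 000/well) given compound/DNA complexes at various charge ratios, prepared in 50 mM MES–50 mM HEPES–75 mM NaCl pH 7.2, 0.6 μg DNA/well, for 5 h at 37 °C, then 45 h in growth medium. Lysates assayed for β-galactosidase via oNPG hydrolysis at 405 nm against an E. coli enzyme standard; efficiency expressed as percent of Lipofectin.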

plasmid DNA = test: DNA condensation/complexation, EtBr displacement assay; type: binding
Outline: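 Plasmid DNA (0.6 μg/well) was mixed with 0.002% EtBr in 20 mM HEPES–150 mM NaCl pH 7.4, then cationic liposomes were added at various +/− charge ratios.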

[3] = amphiphile/DNA +/− charge ratio 0.5
[4] = amphiphile/DNA +/− charge ratio 1
[5] = amphiphile/DNA +/− charge ratio 2
[6] = amphiphile/DNA +/− charge ratio 4
[7] = amphiphile/DNA +/− charge ratio 8

| melting point | complexation, percentage of the maximum fluorescence signal when EtBr bound to DNA in the absence of an amphiphile (plasmid DNA; [3]) | complexation, percentage of the maximum fluorescence signal when EtBr bound to DNA in the absence of an amphiphile (plasmid DNA; [4]) | complexation, percentage of the maximum fluorescence signal when EtBr bound to DNA in the absence of an amphiphile (plasmid DNA; [5]) | complexation, percentage of the maximum fluorescence signal when EtBr bound to DNA in the absence of an amphiphile (plasmid DNA; [6]) | complexation, percentage of the maximum fluorescence signal when EtBr bound to DNA in the absence of an amphiphile (plasmid DNA; [7]) | SMILES | cytotoxicity as a percentage of survived cells (CVI-P cells; [3]) | cytotoxicity as a percentage of survived cells (CVI-P cells; [4]) | cytotoxicity as a percentage of survived cells (CVI-P cells; [5]) | cytotoxicity as a percentage of survived cells (CVI-P cells; [6]) | cytotoxicity as a percentage of survived cells (CVI-P cells; [7]) | cytotoxicity as a percentage of survived cells (D 407 cells; [3]) | cytotoxicity as a percentage of survived cells (D 407 cells; [4]) | cytotoxicity as a percentage of survived cells (D 407 cells; [5]) | cytotoxicity as a percentage of survived cells (D 407 cells; [6]) | cytotoxicity as a percentage of survived cells (D 407 cells; [7]) | transfection efficiency [1, 4] | transfection efficiency [1, 5] | transfection efficiency [1, 6] | transfection efficiency [1, 7] | further results |
| --- | --- | --- | --- | --- | --- | --- | --- | --- | --- | --- | --- | --- | --- | --- | --- | --- | --- | --- | --- | --- | --- |
| 114 to 115 °C | 93,25% | 84,75% | 78,9% | 74,85% | 71,05% | CCCCCCCCCCCCCCOC(=O)C1=C(C)NC(C)=C(C(=O)OCCCCCCCCCCCCCC)C1c1ccc[n+](C)c1.I.[I-] [VI, 1′,4′-Dihydro-1,2′,6′-trimethyl-3′,5′-bis(tetradecyloxycarbonyl)-3,4′-bipyridinium iodide] | 94,05% | 89,46% | 90,38% | 45,6% | 7,52% | 98,6% | 94,43% | 79,12% | 12,13% | 5,11% | 16,56 β-galactosidase units per well | 35,6 β-galactosidase units per well | 1,21 β-galactosidase units per well | 1,08 β-galactosidase units per well | transfection efficiency [1, 3]: 0,53 β-galactosidase units per well; transfection efficiency [2, 3]: 0,81 β-galactosidase units per well; transfection efficiency [2, 4]: 0,82 β-galactosidase units per well; transfection efficiency [2, 5]: 4,82 β-galactosidase units per well; transfection efficiency [2, 6]: 2,16 β-galactosidase units per well; transfection efficiency [2, 7]: 1,27 β-galactosidase units per well |
| 112 to 113 °C (dec.) | 90,6% | 86,95% | 83,11% | 79,25% | 77,6% | CCCCCCCCCCCCCCCCOC(=O)C1=C(C)NC(C)=C(C(=O)OCCCCCCCCCCCCCCCC)C1c1ccc[n+](C)c1.I.[I-] [VII, 3′,5′-Bis(hexadecyloxycarbonyl)-1′,4′-dihydro-1,2′,6′-trimethyl-3,4′-bipyridinium iodide] | 102,34% | 97,03% | 103,62% | 99,84% | 88,71% | 95,82% | 84,83% | 62,61% | 55,53% | 51,38% | 0,82 β-galactosidase units per well | 1,37 β-galactosidase units per well | 0,98 β-galactosidase units per well | 0,63 β-galactosidase units per well | transfection efficiency [2, 3]: 0,73 β-galactosidase units per well; transfection efficiency [2, 4]: 0,39 β-galactosidase units per well; transfection efficiency [2, 5]: 2,2 β-galactosidase units per well; transfection efficiency [2, 6]: 0,81 β-galactosidase units per well; transfection efficiency [2, 7]: 0,61 β-galactosidase units per well |
| 140 to 141 °C (dec.) | 88,0% | 81,94% | 76,4% | 71,5% | 66,31% | CCCCCCCCCCCCCCCCOC(=O)C1=C(C)NC(C)=C(C(=O)OCCCCCCCCCCCCCCCC)C1c1ccc[n+](CC(N)=O)c1.I.[I-] [XX, 1-Carbamoylmethyl-3′,5′-bis(hexadecyloxycarbonyl)-1′,4′-dihydro-2′,6′-dimethyl-3,4′-bipyridinium iodide] | 100,59% | 110,76% | 59,96% | 71,98% | 92,09% | – | – | – | – | – | – | – | – | – | transfection, result in words [2]: No signal |

| SMILES | melting point | complexation, percentage of the maximum fluorescence signal when EtBr bound to DNA in the absence of an amphiphile (plasmid DNA; [3]) | complexation, percentage of the maximum fluorescence signal when EtBr bound to DNA in the absence of an amphiphile (plasmid DNA; [4]) | complexation, percentage of the maximum fluorescence signal when EtBr bound to DNA in the absence of an amphiphile (plasmid DNA; [5]) | complexation, percentage of the maximum fluorescence signal when EtBr bound to DNA in the absence of an amphiphile (plasmid DNA; [6]) | complexation, percentage of the maximum fluorescence signal when EtBr bound to DNA in the absence of an amphiphile (plasmid DNA; [7]) | cytotoxicity as a percentage of survived cells (CVI-P cells; [3]) | cytotoxicity as a percentage of survived cells (CVI-P cells; [4]) | cytotoxicity as a percentage of survived cells (CVI-P cells; [5]) | cytotoxicity as a percentage of survived cells (CVI-P cells; [6]) | cytotoxicity as a percentage of survived cells (CVI-P cells; [7]) | cytotoxicity as a percentage of survived cells (D 407 cells; [3]) | cytotoxicity as a percentage of survived cells (D 407 cells; [4]) | cytotoxicity as a percentage of survived cells (D 407 cells; [5]) | cytotoxicity as a percentage of survived cells (D 407 cells; [6]) | cytotoxicity as a percentage of survived cells (D 407 cells; [7]) | transfection efficiency [1, 4] | transfection efficiency [1, 5] | transfection efficiency [1, 6] | transfection efficiency [1, 7] | further results |
| --- | --- | --- | --- | --- | --- | --- | --- | --- | --- | --- | --- | --- | --- | --- | --- | --- | --- | --- | --- | --- | --- |
| CCCCCCCCCCCCCCCC(=O)OCCOC(=O)C1=C(C)NC(C)=C(C(=O)OCCOC(=O)CCCCCCCCCCCCCCC)C1c1ccc[n+](C)c1.I.[I-] [I, 1′,4′-Dihydro-1,2′,6′-trimethyl-3′,5′-bis[(2-palmitoyloxyethoxy)carbonyl]-3,4′-bipyridinium iodide] | 105 to 107 °C | 89,4% | 87,2% | 84,4% | 78,3% | 73,35% | 94,43% | 94,83% | 91,92% | 78,43% | 70,75% | 90,43% | 80,92% | 51,14% | 31,39% | 26,92% | 20,04 β-galactosidase units per well | 5,72 β-galactosidase units per well | 0,89 β-galactosidase units per well | 0,88 β-galactosidase units per well | transfection efficiency [1, 3]: 0,83 β-galactosidase units per well; transfection efficiency [2, 3]: 0,26 β-galactosidase units per well; transfection efficiency [2, 4]: 7,72 β-galactosidase units per well; transfection efficiency [2, 5]: 2,89 β-galactosidase units per well; transfection efficiency [2, 6]: 0,73 β-galactosidase units per well; transfection efficiency [2, 7]: 0,78 β-galactosidase units per well |
| Br.CCCCCCCCCCCCCCCC[n+]1cccc(C2C(C(=O)OCCCCCCCCCCCCCC)=C(C)NC(C)=C2C(=O)OCCCCCCCCCCCCCC)c1.[Br-] [XVII, 1-Hexadecyl-1′,4′-dihydro-2′,6′-dimethyl-3′,5′-bis(tetradecyloxycarbonyl)-3,4′-bipyridinium bromide] | 133 to 135 °C | 104,4% | 97,9% | 95,1% | 97% | 96,5% | 105,14% | 85,31% | 88,20% | 67,45% | 97,34% | – | – | – | – | – | – | – | – | – | transfection, result in words [2]: No signal |
